Consider one molecule from patent publication US20180106782A1, “HIGH THROUGHPUT CARDIOTOXICITY SCREENING PLATFORM” (The Board of Trustees of the Leland Stanford Junior …, priority 2016, published 2018).

Molecules are shown by their SMILES.

In the assay the test system is μpatterned hiPSC-CMs. The experiment in a line: traction force microscopy of moving microbeads under beating μpatterned hiPSC-CMs. The format is cell-based, human. The method, then: We cultured single hiPSC-CMs on Matrigel micropatterns, which were transferred from printed glass coverslips onto the surface of polyacrylamide hydrogels with a stiffness of 10 kPa as previously described. (Ribeiro 2015a) In summary, Matrigel was diluted 1:10 in L15 medium (Thermo Fisher) and added to the top of elastomeric microstamps composed of polydimethylsiloxane 182 (Dow Corning) to be incubated at 3-4° C. overnight. Microstamps consisted of 2000 μm^2 rectangular features with an aspect ratio of 7:1 (length:width). We gently aspirated Matrigel after the overnight incubation, washed the stamps twice in L15 medium, aspirated L15 medium from the surface and dried it with a low stream of N2 gas. We then used microstamps to micropattern the Matrigel rectangular features on clean glass coverslips by microcontact printing. Matrigel on micropatterns was transferred to the surface of the polyacrylamide substrates during the gelation process by placing the patterned coverslip in contact with the top of the acrylamide prepolymer solution right before gelation. The aqueous prepolymer solution to be gelled was composed of acrylamide (Sigma-Aldrich)(10% w/v), bisacrylamide (Sigma-Aldrich) (0.1% w/v), ammonium persulfate (Sigma-Aldrich) (0.01% w/v) and N,N,N′,N′-tetramethylethylenediamine (Sigma-Aldrich) (0.1% v/v), HEPES (Thermo Fisher) (35 mM) and Milli-Q water. To calculate the forces generated by cells attached to polyacrylamide surfaces with traction force microscopy, green fluorescent microbeads with a diameter of 0.2 μm (Thermo Fisher) were also dispersed in the gel solution to yield a final concentration of 6.25×10^9 microbeads/mL. We gelled acrylamide on top of another coverslip functionalized with 3-(trimethoxysilyl)propyl methacrylate (Sigma-Aldrich), which binds polyacrylamide. […] Once polymerized, polyacrylamide substrates were incubated in PBS for at least 2 hours and the top coverslips were carefully removed with a razor blade. We seeded hiPSC-CMs on these polyacrylamide hydrogel substrates after washing them 3 times with PBS.
We passaged hiPSC-CMs onto micropatterned polyacrylamide devices at a density of 1000 cells/cm^2. For this purpose, cultures of thawed cells were washed twice with PBS and incubated in 1 mL of Accutase for 8-10 min. After observing cell detachment from the bottom of the wells, we quenched Accutase with Dulbecco's modified Eagle's medium (Thermo Fisher) containing 12% fetal bovine serum and counted the concentration of cells in medium with a hemocytometer. Then, we centrifuged cells at 83 rcf for 3 min at room temperature and aspirated the supernatant to resuspend the pelleted cells in the required volume of medium (RPMI-1640 cell-culture medium with 5 μM ROCK inhibitor) for adding 150 μL of cell solution to the surface of hydrogel devices at a concentration of 1000 cells/cm^2. After 1.5 h of incubation, we added 2.5 mL of medium to the well containing hydrogel devices and added fresh medium without ROCK inhibitor after 2 days. Single beating cells on Matrigel patterns were analyzed between 5-10 days after seeding.
We imaged the movement of beating hiPSC-CMs and the displacement of fluorescent microbeads embedded in polyacrylamide substrates with a Zeiss Axiovert 200M inverted microscope equipped with a Zeiss Axiocam MRm CCD camera. This microscope also contained an environmental chamber (PeCon) to set temperature at 37° C. Unless otherwise noted, we acquired microscopy videos while electrically pacing hiPSC-CMs with 10 ms-wide bipolar pulses of electric-field stimulation at 10-15 V with a frequency of 1 Hz (Myopacer, lonOptix).
To induce contractile changes in hiPSC-CMs, we added drugs known to affect CM contractile machinery to the culture medium. We analyzed the mechanical output of cells after adding drugs. […]

The mark [1] stands for this setting: extracellular caffeine slowly increased up to 10 μM (FIG. 3C).

With `Cn1c(=O)c2c(ncn2C)n(C)c1=O` [caffeine], under setting [1], the “kinetics of relaxation right after adding caffeine” value is “sudden decrease” and the “mechanical output right after adding caffeine” value is “sudden increase”. Also, the “t̂ (time between peak velocity of contraction and peak velocity of relaxation)” value (low doses of caffeine slowly diffused through the culture media, single cell (FIG. 3B)) is “increase”. Also, the “magnitude of the contractions that followed and kinetics of relaxation” value (with increasing caffeine extracellular concentration (FIG. 3)) was “considerably decreased”.
